From article PMC7614683, “A small molecule PI3Kα activator for cardioprotection and neuroregeneration” (Nature, 2023)
Where “and” joins values, the source holds several entries; their conditions need not be identical. Identical values can stand only once. Like-named read-outs stand apart in the source and are kept apart here.

Assays:
BRK = BRK (Homo sapiens, UniProt Q13882); experiment: SelectScreen kinase profiling, BRK; format: biochemical
Description: 133 protein kinases and 7 lipid kinases were counterscreened, with 1938 used at 1 μM, using the Adapta, Lantha and Z-LYTE assays (SelectScreen Kinase Profiling Service; Thermofisher – experimental details of these assays can be found here: https://www.thermofisher.com/uk/en/home/industrial/pharma-biopharma/drug-discovery-development/target-and-lead-identification-and-validation/kinasebiology/kinase-activity-assays.html. The tree represention in KinMap[59] generated courtesy of Cell Signaling Technology, Inc. (www.cellsignal.com). mTORC1 (mTOR/RAPTOR/LST8) protein complex and ATM kinase and substrates were produced as previously described[57],[60]. Screening of 1938 was conducted using SuperSep Phos-Tag 50 μmol/l 100 x 100 x 6.6 mm 17-well (192-18001/199-18011) gels. For ATM assays, 100 nM ATM was incubated for 30 min at 30°C with 5 μM GST-p53 and 1 mM ATP, in the absence or presence of 200 μM 1938 in ATM Kinase Buffer (50 mM HEPES pH 7.5, 100 mM NaCl, 10% glycerol, 2 mM […], 5 mM MgCl2). As a positive control for ATM activation, the same reaction was carried out with 100 nM ATM/5 μM GST-p53/1 mM ATP in the presence of 100 nM Mre11-Rad50-Nbs1 (MRN) complex, a known activator of ATM[61]. For mTORC1 assays, 50 nM mTORC1 complex (mTOR/LST8/RAPTOR) was incubated for 3 h at 30°C with 15 μM 4E-BP1, 10 mM MgCl2 and 250 μM ATP, in the absence or presence of 200 μM 1938. As a ‘positive’ control, a higher concentration (150 nM) of mTORC1 complex (mTOR/LST8/RAPTOR) was incubated for 3 h at 30°C with 15 μM 4E-BP1, 10 mM MgCl2 and 250 μM ATP. Kinase reactions were quenched by addition of SDS-PAGE Loading Buffer (as per manufacturer’s instructions) and freezing at -20°C before being run on the Phos-tag gels at 150 V for 90 min. Gels were then stained using InstantBlue™ Coomassie, and quantified using BioRad Image Lab Software. Kinase assays were carried out in triplicate.

rat sciatic nerve = experiment: Rat sciatic nerve crush injury model; format: in vivo; settings: 21 days, single animals
Description: We used the rat sciatic nerve crush model of peripheral nerve injury and regeneration[82]–[84]. Adult female Sprague Dawley rats (230-280 g, n=10, Charles River, UK) were anaesthetised by isoflurane inhalation in an induction chamber (5% isoflurane in O2, 0.8 l/min). Anaesthesia was maintained with 1.5-2.5% isoflurane inhalation, and the left sciatic nerve exposed at mid-thigh level.
The nerve was crushed by application of constant pressure using fully closed sterile type 4 tweezers (TAAB) for 15 sec. This was repeated two more times at the same point, with 45° rotation between each crush. The injury site was marked with a 10/0 epineurial non-absorbant suture (Ethicon). Following injury, a single 2 μl injection of 1938 solution (5 μM in sterile H2O) or vehicle (sterile dH2O) was administered proximal to the crush site with a 10 μl Hamilton syringe. An osmotic minipump (Alzet 1004, Charles River, UK) was also implanted between the muscle layers, adjacent to the nerve oriented with the outlet nearest to the crush site, loaded with 1938 solution (100 μM in sterile H2O) or vehicle (sterile H2O). Animals were randomly assigned to groups (n=5 per group) and one experimenter was kept blind to condition for conducting functional and histological analyses. Overlying muscle layers were closed using 4/0 sutures (Ethicon) and the skin was closed with wound clips (Clay Adams). Animals were left to recover for 21 days.
At the end-point of the experiment (21 days), rats were anaesthetised and the sciatic nerve exposed as described above. A reference, ground (Natus) and recording electrode (Ambu Neuroline) were attached above the hip bone, into the tail, and into the tibialis anterior muscle respectively. A microchannel neurointerface (MNI) was placed approximately 2 mm proximal to the injury site and used to stimulate the nerve. The MNI was manufactured using a previously documented protocol. Electrode impedance of the MNI was 27.1 ±19.8 kΩ at 1k Hz. Compound muscle action potential (CMAP) was obtained by sciatic nerve stimulation with square wave pulses of 100 μsec with intensity from 1-10 mA. Stimulus was increased in 0.2 mA steps until muscle response amplitude no longer increased. CMAP amplitude was measured from peak to peak and recorded in triplicate for both the ipsilateral and contralateral side. The CMAP with the largest amplitude was selected for analysis.
A modified multipoint stimulation technique was used to calculate Motor Unit Number Estimation (MUNE)[86]–[88]. Incremental responses were obtained by delivering a submaximal stimulation of 100 μsec duration at a frequency of 1Hz while increasing the stimulus intensity in increments of 0.02 mA to obtain minimal responses. The initial response was obtained with a stimulus intensity of between 0.21 mA and 0.70 mA. […] Additional Single Motor Unit Potentials (SMUPs) were evoked by stimulation in increments of 0.02 mA to obtain a minimum of four additional increments. The position of the stimulating electrode and the location of the recording electrode was changed to allow the recording of SMUPs from a different site of the muscle. This process was repeated at least three times. The CMAP was divided by the mean magnitude of SMUPs to quantify MUNE.
After electrophysiology recordings, animals were culled with sodium pentobarbital injection according to local regulations. Sciatic nerves, including the common peroneal branch, and tibialis anterior muscles were collected and placed in 4% paraformaldehyde (PFA). Nerve samples were fixed overnight in 4% PFA at 4°C before transferring to PBS. Nerve samples were divided into sciatic nerves including the crush site, and the common peroneal branch for sectioning. Nerve samples were immersed in 30% sucrose overnight at 4°C, then snap frozen in Neg-50 frozen section medium (Thermo Scientific) using liquid nitrogen cooled isopentane. […]

[1] = sciatic nerve 3 mm distal to injury
[2] = sciatic nerve 6 mm distal to injury

Sequence of BRK (Q13882 whole entry): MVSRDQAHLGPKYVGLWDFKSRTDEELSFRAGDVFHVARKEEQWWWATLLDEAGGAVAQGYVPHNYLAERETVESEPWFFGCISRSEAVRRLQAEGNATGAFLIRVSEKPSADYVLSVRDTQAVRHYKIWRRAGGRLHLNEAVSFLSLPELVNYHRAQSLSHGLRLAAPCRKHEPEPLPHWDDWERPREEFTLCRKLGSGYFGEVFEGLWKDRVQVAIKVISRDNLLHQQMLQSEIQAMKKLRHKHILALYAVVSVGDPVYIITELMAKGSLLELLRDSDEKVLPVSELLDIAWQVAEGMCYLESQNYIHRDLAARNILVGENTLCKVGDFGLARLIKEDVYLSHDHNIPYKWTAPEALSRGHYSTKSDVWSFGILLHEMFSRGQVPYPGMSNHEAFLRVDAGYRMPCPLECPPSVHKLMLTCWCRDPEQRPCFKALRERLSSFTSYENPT

CCN1CCN(c2ccc(Nc3cc(Nc4cccc5c4N(C(C)=O)CC5)ccn3)cc2)CC1 [Compound 1938]
inhibition at 1 µM (BRK; read-out: % Inhibition Point 1): 55% | inhibition at 1 µM (BRK; read-out: % Inhibition Point 2): 56% | inhibition at 1 µM (BRK; read-out: % Inhibition mean): 56% | Nerve Branch ChAT (ChAT-positive motor axons, distal common peroneal nerve) (rat sciatic nerve): increase in 1938-treated animals in the number of choline acetyltransferase (ChAT)-positive motor axons and 34 and 72 and 42 and 49 and 62 | Axons, ChAT (rat sciatic nerve; [1]): 1228 and 1010 and 1060 and 720 and 1883 | Axons, Neurofilament (rat sciatic nerve; [1]): 7100 and 6477 and 6615 and 8292 and 8493 | Axons, ChAT (rat sciatic nerve; [2]): 922 and 986 and 763 and 966 and 1022 | Axons, Neurofilament (rat sciatic nerve; [2]): 5299 and 5863 and 4746 and 5437 and 5016 | CMAP Recovery (rat sciatic nerve; tibialis anterior muscle): greater compound muscle action potential (CMAP) recovery and 16.9542 % contralateral and 21.941 % contralateral and 17.4705 % contralateral and 17.5154 % contralateral and 28.7184 % contralateral | MUNE Recovery (rat sciatic nerve; tibialis anterior muscle): increased motor unit number estimation and 60.8971 % contralateral and 47.6617 % contralateral and 40.6292 % contralateral and 44.6256 % contralateral and 48.3614 % contralateral | NMJ (rat sciatic nerve; tibialis anterior muscle): 17 % reinnervation and 31 % reinnervation and 16 % reinnervation and 23 % reinnervation and 26 % reinnervation
